Data taken from article PMC10630888, “Nuclear ERK1/2 signaling potentiation enhances neuroprotection and cognition via Importinα1/KPNA2” (EMBO Molecular Medicine, 2023).
“And” between values parts separate entries of the source, which are not always exact repeats. Equal entries are not always repeated.

What was measured:
cleaved caspase-3 = test: Cleaved caspase-3 in striatum, 3-NP model with RB5; type: in vivo, mouse; settings: peptide 20 mg/kg i.p. twice a day plus 3-NP 50 mg/kg i.p. once a day, 7 days; individual mice
Description: In ex‐vivo and in‐vivo immunofluorescence experiments, the number of p‐S6 or p‐AcH3 immunoreactive neurons among NeuN‐positive neurons was counted in 2–3 consecutive striatal sections per mouse in four fields per section. Caspase 3‐positive cells were quantified among NeuN‐positive neurons in each slide and expressed as percentage (ratio between caspase‐3‐positive cells and total NeuN‐positive neurons) for each field acquired through the slide. The number of cells showing mutant Huntingtin inclusions were expressed as a percentage of mutant Huntingtin‐positive cells among DAPI‐positive cells.

[1] = system: p-ERK1/2 in CTIP2+ neurons; test: p-ERK1/2 in CTIP2+ iPSC-derived HD MSNs; type: cell-based, human; settings: for p-ERK1/2 in CTIP2+ neurons (Fig 5 panel f): individual replicates
Method: The human induced pluripotent stem cell line CS09iHD109‐n1 (herein referred to as Q109N1) was originally generated from a human fibroblast line ND39258 (RRID:CVCL_ZC78) with an expanded HTT allele initially containing 109 pure CAG trinucleotides, and the isogenic control lines used were derived by CRISPR gene‐edit to reduce the CAG repeat length to 20 repeats (Mattis et al, [2015]). IPSCS were cultured on hESC‐qualified Matrigel (Corning) in E8‐Flex medium (Thermo Fisher) and passaged with RelesR (Stem Cell Technologies) according to the manufacturer's instructions. For neural differentiation iPSCS were grown to 70% confluency and then treated with 10 μM Y‐27632 (Tocris) for 1 h before harvesting by dissociation to a single cell suspension using accutase (Sigma). IPSCs were replated onto fresh Matrigel‐coated plates at a split ratio of 1:2, in E8‐Flex medium containing 10 μM Y‐27632. After overnight culture, IPSCs at 80–90% confluency were washed with PBS pH 7.4 (Gibco) and then switched to neural induction medium (Advanced DMEM/F12 (1:1) supplemented with 2 mM GlutamaxTM (Gibco), 2% Neurobrew without vitamin A (Miltenyi), 10 μM SB431542, 1 μM LDN 193189 (both Stem Cell Technologies), and 1.5 μM IWR1 (Tocris)). Medium was changed daily until day 8, when cells were passaged 1:2 by cell dissociation with Accutase for 5 min at 37°C and replated on Matrigel® coated plates in LIA medium containing (Advanced DMEM/F12 (1:1) supplemented with 2 mM GlutamaxTM, 2% Neurobrew without vitamin A, 0.2 μM LDN 193189, 1.5 μM IWR1, and 20 ng/ml Activin A (Peprotech)). At day 16, cells were plated for neuronal differentiation according to (Telezhkin et al, [2016]). […]
Images were acquired using a confocal microscope (Zeiss LSM710) under a 20× objective and analyzed with ImageJ software.

Sequence: GRKKRRQRRRPPQGGGGGEPRRTEGVGPGVPGEVEMVKGQPFDV [RB5, six D-amino acids, acetylated N-terminus]
- Cleaved caspase-3-positive cells among NeuN-positive neurons (cleaved caspase-3): significantly reduced neuronal death
- p-ERK1/2 in CTIP2+ neurons (Fig 5 panel f) ([1]; CTR iPSC-derived MSNs): 40.5874 and 43.5065 and 59.0476 and 55.7538 and 63.8384 and 58.6194
- p-ERK1/2 in CTIP2+ neurons ([1]; HD and isogenic control iPSC-derived MSNs, 50 μM, 30 min): induced ERK activation
- p-ERK1/2 in CTIP2+ neurons (Fig 5 panel f) ([1]; HD iPSC-derived MSNs): 50.2062 and 59.3301 and 53.5036 and 55.8187 and 47.3002 and 65.1771
